The nature of data set [1]: Release of encapsulated small molecules from capsules in fresh buffer (UV absorption of supernatant). Type of data set: physicochemical. The procedure:
The release of the encapsulated species from the capsules was then studied. To this effect, the capsules were incubated in fresh buffer for an increasing period of time, removed the gels by centrifugation, and measured the concentration of released small molecules in the supernatant through their UV absorption. The results shown in FIG. 4 (d) reveal marked differences in the rate of release of the small molecules.
The loaded microgels were washed with 10 mM HCl at intervals of time from 10 min to 14 d. The solutes after each washing were analysed by UV spectroscopy.

A short description of data set [2]: Release kinetics of insulin, glucagon and lysozyme from protein microgel capsules (washing with DDW pH 7). The conditions noted are these: compared to insulin and lysozyme proteins. Type of data set: physicochemical. The procedure:
The efficiency of microfluidic techniques for protein capsules synthesis was studied by calculating the percentage of protein participating in capsule formation following the fluorescent signal of labelled protein in residue solutions. After the preparation of the microgel capsules was accomplished and the resulting capsules were washed, in order to remove unreacted species, and the concentration of unreacted protein was calculated following UV absorption and fluorescent signal of each protein. In order to study the release kinetics of insulin, glucagon and lysozyme protein microgel shells, the loaded samples were washed with DDW pH=7 within following intervals of time: 10 min., 30 min., 1 h., 3 h., 8 h., 12 h., 24 h., 48 h., 3 d., 7 d. Each washing solution was than analysed by UV spectroscopy and fluorimeter and exact concentration of the released species was detected.
Finally, whether the aggregation nature of the protein structures influenced the release kinetics of the encapsulated proteins was studied. […] This effect is attributed to the slow aggregation process of glucagon protein in the protein assembly. However, for the multishell structures, the proteins which localise at the core of the microgels tend to dissociate (release) only after the proteins of the outer shell are released. […]

The values below come from US11878080B2, “Protein capsules” (Cambridge Enterprise Limited, priority 2014, dated 2024).

In the case of `Cc1ccc2c(c1)sc(-c1ccc(N(C)C)cc1)[n+]2C.[Cl-]` [ThT, Thioflavin T], the “extent of release from capsules” value in data set [1] (after one week) is on record as “not fully released”.
With “glucagon: human glucagon (Gemini Bio-Products), protein assembled into and released from microgel capsules”, the “release rate of protein from capsules” value in data set [2] was “much faster”.
Regarding `CC1(C)S[C@@H]2[C@H](NC(=O)COc3ccccc3)C(=O)N2[C@H]1C(=O)O` [Penicillin V], in data set [1] (release from lysozyme capsules in fresh buffer), the “time to maximum release rate” value is “one”.
